Patent US11433081B2 (priority 2018, dated 2022)

Tested on: Chronic Pain
Settings: human, in vivo, po

Which Pain level does the source give for `COc1ccc2c3c1O[C@H]1C(=O)CC[C@@]4(O)[C@@H](C2)N(C)CC[C@]314` [Oxycodone] here?
Its Pain level is 3 /10.
